Data: PubChem BioAssay AID1117361 (Southern Research Institute, 2015)

biological target: Protein Tat (Human immunodeficiency virus type 1 group M subtype B (isolate HXB2)) (UniProt P04608); experiment: inhibitors of Tat binding to TAR RNA, dose response, counter-screen for Vif-APOBEC3G degradation inhibitor project, biochemical, fluorescence polarization, FAM-labeled TAR RNA (AID 1117361)
Sequence (P04608 whole entry, looked up): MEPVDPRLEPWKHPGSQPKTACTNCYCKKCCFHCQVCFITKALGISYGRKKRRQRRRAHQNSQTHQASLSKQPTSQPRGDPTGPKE

In order of rising IC50:
1. O=C(CN1CCN(S(=O)(=O)c2ccc(Cl)cc2)CC1)Nc1ccc2c(c1)OCCO2  1.31 µM
2. COc1cccc2c1NC(C(=O)O)C1CC=CC21 (stereo not drawn)  1.87 µM
3. CCC(c1nnnn1C(C)(C)CC)N(CCCO)Cc1cc2cc(C)cc(C)c2[nH]c1=O (stereo not drawn)  1.88 µM
4. O=C(O)c1cccc2c1NC(C(=O)O)C1CC(Sc3ccccc3[N+](=O)[O-])C(Cl)C21 (stereo not drawn)  1.91 µM
5. O=C(O)C1OC(Oc2c(-c3ccc(O)c(O)c3)oc3cc(O)cc(O)c3c2=O)C(O)C(O)C1O (stereo not drawn)  2.12 µM
6. c1coc(-c2nc(-c3ccco3)c(-c3ccco3)nc2-c2ccco2)c1  2.19 µM
7. Cc1ccc(C(=O)N/N=C\c2cc(Br)c(Br)o2)cn1  2.34 µM
8. CCCCCC#CCC#CCC#CCC#CCCCC(=O)O  2.38 µM
9. O=C1NC(=S)S/C1=C\C=C\c1ccc([N+](=O)[O-])o1  2.76 µM
10. C[c-]1[c-](C)[c-](C)[c-](C)[c-]1C.[Fe].c1cc2nccc(N3CCCC3)[c-]2c1 (stereo not drawn)  2.81 µM
11. CCOc1cccc(=O)c2c(C)n(Cc3ccco3)c(C)c12  2.95 µM
12. Cc1ccc(/C=C/C2=Cc3c(sc(NC(=O)CSc4n[nH]c(N)n4)c3C#N)C(C)(C)C2)o1  3.04 µM
13. O=C(O)c1cccc2cccc(-c3c4ccc(=O)c(O)c-4oc4c(O)c(O)ccc34)c12  3.38 µM
14. CC(=O)OCCCNc1cc(Sc2nc3ccccc3s2)c2nonc2c1[N+](=O)[O-]  3.41 µM
15. O=C(O)C1Nc2ccc(Br)cc2C2C=CCC12 (stereo not drawn)  3.73 µM
16. CC1=C(C(=O)Nc2ccccc2F)C(c2ccsc2)C2=C(CC(c3ccccc3)CC2=O)N1 (stereo not drawn)  4.06 µM
17. CCOc1cccc(OCC)c2c(C)[n+](CC3CCCO3)c(C)c1-2 (stereo not drawn)  4.16 µM
18. O=C1/C(=C/c2ccco2)Oc2c1ccc(O)c2CN1CCCCC1  4.3 µM
19. Cc1ccc(C=C2C(Cl)=C(Cl)C(Cl)=C2Cl)cc1  4.67 µM
20. O=c1ccc2c(-c3ccccc3S(=O)(=O)O)c3ccc(O)c(O)c3oc-2c1O  4.84 µM
21. CC(C)NC[C@@H](O)c1ccc(O)c(O)c1  5.21 µM
22. CCOc1ccc(N(CC(=O)NC(C)(C)C)S(=O)(=O)c2c(C)noc2C)cc1  5.37 µM
23. Cc1cc(/C=N/Nc2ccc([N+](=O)[O-])cn2)c(C)n1-c1ccc(C(=O)O)cc1  5.58 µM
24. O=[N+]([O-])c1cc(/C=N\Nc2nccs2)ccc1O  5.68 µM
25. C=C(C)C(=O)Nc1cccc(C2=NOC3(C2)C[C@@H](C(N)=O)N(C(=O)CCCCC)C3)c1 (stereo partly drawn)  5.76 µM
26. Cc1ccc(C2C(C#N)=C(N)Oc3c2oc(CO)cc3=O)o1 (stereo not drawn)  5.77 µM
27. Cc1cc(C(=O)O)ccc1-n1c(C)ccc1C  5.78 µM
28. O=C(O)c1ccc2c(c1)C1C(Cl)C(Sc3ccccc3[N+](=O)[O-])CC1C(c1cccc([N+](=O)[O-])c1)N2 (stereo not drawn)  6.3 µM
29. COc1ccc(N=C2NC(=O)/C(=C\C=C\c3ccco3)S2)cc1  6.32 µM
30. CN(C(=O)COC(=O)c1cc(-c2ccco2)nc2ccccc12)C1CCS(=O)(=O)C1 (stereo not drawn)  6.36 µM
31. Cc1c2ccccc2nc2c(F)c(N(C)C)c(F)c(F)c12  6.51 µM
32. CC(=O)c1ccc(NC(=O)CSc2nnc(-c3ccco3)c(-c3ccco3)n2)cc1  6.61 µM
33. CN1CCN(C2=C(Cl)C(=O)C(c3cnc(N4CCCCC4)s3)=C(Cl)C2=O)CC1  6.71 µM
34. CCCC(=Nc1ccc(N)cc1)C1=C(O)C(C(=O)OC)C(C)(C)CC1=O (stereo not drawn)  6.88 µM
35. O=C(N/N=C/c1ccc(O)c(O)c1O)/C(=C/c1ccc([N+](=O)[O-])cc1)NC(=O)c1ccccc1  7.17 µM
36. CCCCC1=CC2=CC(=O)C(C)(OC(=O)c3cnc4ccccc4n3)C(=O)C2=CO1 (stereo not drawn)  7.3 µM
37. N#CC1=C(N)OC2=C(CCC/C2=C/c2ccoc2)C1c1ccoc1 (stereo not drawn)  7.35 µM
38. CCOC(=O)N1CCN(C(=O)c2ccc3c(SCC(=O)O)c4c(nc3c2)CCC4)CC1  7.65 µM
39. CCOC(=O)C1=C(N)n2c(s/c(=C\c3ccco3)c2=O)=C(C(=O)OCC)C1c1ccco1 (stereo not drawn)  7.85 µM
40. CNc1ccc(Br)cc(C(=O)/C=C/c2cccc(OC)c2OC)c1=O  8 µM
41. CC(=C\c1ccco1)/C=C1/SC(=S)N(CC(=O)O)C1=O  8.8 µM
42. NC(CO)C(=O)NNCc1ccc(O)c(O)c1O (stereo not drawn)  8.84 µM
43. CN1CCc2cccc3c2[C@@H]1Cc1ccc(O)c(O)c1-3  9.08 µM
44. Cc1ccc(C)n1-c1ccc(C(=O)O)cc1  9.09 µM
45. COc1cc(CNCCc2ccc(F)cc2)ccc1OCc1ccc(Cl)nc1  9.8 µM
46. CC(=C/c1ccco1)/C=N/NC(=O)Cc1cccn1C  10.7 µM
47. Cc1c(N=C2C=C(Br)C(=O)C(Br)=C2)c(=O)n(-c2ccccc2)n1C  11 µM
48. O=c1oc(/C=C/c2ccco2)nc2sc3c(c12)CCC3  11.9 µM
49. O=c1cc2c(=O)oc3cc(O)c(O)oc3c2c(O)c1O  12.3 µM
50. O=S(=O)(O)c1cc(O)c2ccc(Nc3ccccc3)cc2c1  12.5 µM
51. CCN(CC(=O)Nc1c(C(=O)OC)[nH]c2ccccc12)c1ccc2c(c1)OCO2  14.3 µM
52. CC[C@H](C)/C=C(C)/C=C/C1=CC2=CC(=O)[C@]3(C)OC(=O)[C@@H](C(C)=O)[C@@H]3C2=CO1  14.4 µM
53. CCC1S/C(=C(\C#N)C(=O)NCc2ccco2)N(c2ccc(F)cc2)C1=O (stereo not drawn)  14.9 µM
54. O=C1/C(=C\c2ccco2)NC(=S)N1c1ccccc1  16.1 µM
55. Cc1sc2ncnc(SCc3ccco3)c2c1C  17.6 µM
56. COc1ccccc1N1C(=O)NC(=O)/C(=C/c2ccc([N+](=O)[O-])s2)C1=O  17.6 µM
57. C=CCn1c(SCC(=O)NCCCC)nc2scc(-c3ccco3)c2c1=O  17.8 µM
58. COC(=O)c1ccccc1NC(=O)CCS(=O)(=O)c1ccc(Br)cc1  18.4 µM
59. Cc1cc(-c2n[nH]c(=S)n2/N=C/C=C/c2ccco2)n[nH]1  18.6 µM
60. Cc1cccc(NC(=S)NC(=O)/C=C/c2ccco2)c1  20.2 µM
61. CCN(CC)c1ccc2oc(=O)c(C)nc2c1  20.2 µM
62. Cc1cc(C(=O)CCl)c(C)n1-c1c(C)n(C)n(-c2ccccc2)c1=O  20.3 µM
63. O=C(COC(=O)c1ccccc1)Nc1ncc([N+](=O)[O-])s1  20.5 µM
64. O=C1CC(c2ccco2)CC(O)=C1C=Nc1cc(Cl)ccc1O (stereo not drawn)  20.5 µM
65. Cc1ccc(-c2c3c([nH]c(=S)c2C#N)CCCC3)o1  21.2 µM
66. Cc1ccn2cc(-c3nonc3C)cc2c1  21.4 µM
67. C/C(=N\Nc1ccc(Cl)c(C(=O)O)c1)c1ccc[nH]1  21.4 µM
68. CCCCN1C(=O)/C(=C/C=C/c2ccco2)C(=O)NC1=S  21.7 µM
69. CCCCn1c(SCC(=O)NCc2ccco2)nc2ccc(N3CCOCC3)cc2c1=O  22.8 µM
70. O=C(CN1CCN(S(=O)(=O)c2ccc(Cl)s2)CC1)NCc1ccc(Cl)cc1  23.2 µM
71. Cc1ccc(SCCN2C(=O)NC(C)(C)C2=O)cc1  24.8 µM
72. CCOc1ccc2[nH]c(=O)c(CN(Cc3nnnn3Cc3ccco3)C3CCCCC3)cc2c1  24.9 µM
73. O/N=C1\CCC\C1=C/c1ccco1  27.2 µM
74. Cc1cccc(-n2c(Cc3cc(=O)[nH]c(=O)[nH]3)nnc2SC(C)C)c1  28.2 µM
75. Cc1ccc2cc(CN(Cc3nnnn3Cc3ccco3)CC3CCCO3)c(=O)[nH]c2c1C (stereo not drawn)  29.4 µM
76. CC(=O)NC1=NC(=O)/C(=C/c2cc(C)n(-c3cccc(C(=O)O)c3)c2C)S1  29.7 µM
77. CCc1c(C)sc(NC(=O)OC)c1C(=O)N1CCCCC1  30.2 µM
78. CC(=O)Nc1ccc(S(=O)(=O)Nc2nc3ccccc3nc2Nc2ccc(C(=O)O)c(O)c2)cc1  32.2 µM
79. CC(C)c1ccc(/C=C/C(=O)N2CCc3ccccc3C2)cc1  33.7 µM
80. CC1=CC2(O)OCCN(CCO)C2=CC1=O (stereo not drawn)  34.5 µM
81. O=C(CSc1nc(-c2ccco2)cc(C(F)(F)F)n1)N1CCc2ccccc2C1  35.2 µM
82. NC(=S)N=Nc1c(O)cc(O)c2[nH]c(=O)ccc12  37.2 µM
83. CCc1cc2cc(C)cc(C)c2nc1SCC(=O)N1CCN(C(=O)c2ccco2)CC1  39.3 µM
84. CN1CCN(C2=C(Cl)C(=O)c3ccccc3C2=O)CC1  40 µM
85. CN(CC(=O)Nc1cccc(F)c1)C(=O)c1cccc(-n2cccc2)c1  40.9 µM
86. CCn1c2ccccc2c2cc(NC(=O)c3ccccc3[N+](=O)[O-])ccc21  43.8 µM
87. CC1(OC(=O)C2CCCC2)C(=O)C=C2C=C(c3ccsc3)OC=C2C1=O (stereo not drawn)  45.4 µM
88. O=C(O)C1Nc2c(Cl)cc(Cl)c(Cl)c2C2C=CCC12 (stereo not drawn)  45.9 µM
89. S=c1[nH]nc(C2CC2)n1Cc1ccco1  45.9 µM
90. O=C(CCCN1C(=O)/C(=C\c2ccco2)SC1=S)Nc1ccc2ccccc2c1  48.3 µM
91. Cn1c(O)c(/C=N/NC(=O)c2ccncc2)c(=O)[nH]c1=S  51.8 µM
92. CCOC(=O)c1c(N)sc(=S)c2c1CCC2  52 µM
93. CCc1c(C)sc(NC(=O)c2cc(-c3ccco3)on2)c1C#N  52.4 µM
94. Cc1cc(C)c([N+](=O)[O-])cc1-c1ccc(/C=N/c2c(-c3ccco3)nc3ccccn23)o1  57.5 µM
95. Cn1cnnc1SCC(=O)Nc1ncc([N+](=O)[O-])s1  58.2 µM
96. CCN1CCc2c(C#N)c(NCc3ccccc3)nc(N(CC)CC)c2C1  59.4 µM
97. CCCOc1ccc(N)cc1N  59.5 µM
98. Cc1onc(-c2c(F)cccc2Cl)c1C(=O)Nc1nnc(C2CC2)s1  60.7 µM
99. CN1CCC(N(C)C(=O)COc2ccccc2-c2ccccc2)CC1  63.7 µM
100. c1cn2cc(CSC3CCCCC3)nc2s1  63.8 µM
101. COC(=O)c1ccc(C(=O)OC)c(NC(=O)Cc2cccs2)c1  64.8 µM
102. CCOc1ccc(NCC2CCOC(C)(C)C2)cc1 (stereo not drawn)  64.8 µM
103. CCOC(=O)Cn1nnnc1C(C(C)C)N(Cc1cc2c(C)cc(C)cc2[nH]c1=O)C1CCCC1 (stereo not drawn)  67.6 µM
104. Nc1cccc2cc(S(=O)(=O)O)ccc12  67.9 µM
105. Oc1ccc(NCc2cccc(OCc3ccc(F)cc3)c2)cc1  68.7 µM
106. O=C(O)c1[nH]c2ccc(Cl)cc2c1CC(=O)N1CCN(C(=O)c2ccco2)CC1  69.5 µM
107. CCCCN1C2CCCC1CC(NC(=O)c1ccc(OC)c(OC)c1)C2 (stereo not drawn)  78.3 µM
108. COC(=O)C1=C(C)N(Cc2ccccc2)C(=O)/C1=C\c1ccco1  79.7 µM
109. COc1ccc(C2=NCC(=O)N(CC(=O)NCc3ccco3)c3sc4c(c32)CCCC4)cc1OC  82.3 µM
110. O=C(NCc1ccccn1)c1coc(=O)c(Br)c1  88.3 µM
111. CCN(CC)S(=O)(=O)c1cccc(C(=O)N/N=C/c2ccc(O)c(O)c2O)c1  92.7 µM
112. O=C(O)C1Nc2c(Cl)cc(Cl)cc2C2C=CCC12 (stereo not drawn)  94.4 µM
113. CC1=NN(C(N)=S)C(=O)C1N=Nc1cccc([N+](=O)[O-])c1 (stereo not drawn)  99.2 µM
